Experiment: gradient 5% acetonitrile 3 min, to 50% in 2 min, to 85% in 15 min, held 3 min, 100 µL/min
Settings: column: Zorbax Extend-C18 2.1 x 50 mm; eluents: water / acetonitrile, 0.1% formic acid
Procedure, shortened: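 A Zorbax Extend-C18 column (2.1 × 50 mm, 1.8 μm) run at 100 μL/min with water and acetonitrile, both containing 0.1% formic acid, separated mixtures of ~100 pure standards. The HPLC was coupled to a quadrupole time-of-flight mass spectrometer operated in positive and negative ionization mode, with dead and dwell volumes of 40 μL and 900 μL. Each retention time was taken from a computationally picked adduct peak that was then manually inspected.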

Structure (SMILES)	RP-LC retention time
Cc1ccc(-c2nc3cnccn3c2Nc2ccc(F)cc2)cc1	904 s
CCOc1ccccc1NS(=O)(=O)c1ccccc1-c1nc(-c2ccc(F)cc2)no1	1150 s
CCc1nn2c(CNC(=O)c3ccc(C(F)(F)F)cc3)c(-c3ccccc3)nc2s1	1020 s
COc1ccc2c(c1)C1(CCN(C(=O)c3cccc(F)c3)C1)C(=O)N2C (centres undefined)	782 s
O=C(C1=CN(c2cccc(Cl)c2)c2cc(F)ccc2S1(=O)=O)N1CCOCC1	811 s
CC(CCc1ccccc1)NC(=O)Cc1nnc(-c2ccncc2)o1 (centres undefined)	744 s
N#Cc1ccccc1CN1CCC2(CCC2N2CCOCC2)CC1 (centres undefined)	690 s
CCCNc1nc(-c2ccccc2Cl)nc2ccccc12	702 s
CCOC(=O)c1ccc2nc(C(F)(F)F)nc(NC(C)CCc3ccccc3)c2c1 (centres undefined)	1360 s
CCOC(=O)c1c(C)oc2nc(C)nc(NCCCN(CC)c3ccccc3)c12	825 s
Cc1ncc2c(n1)C[C@@H]1CC[C@H]2N1C(=O)c1cccnc1	570 s
COc1ccccc1CNC(=O)c1nc2cccnc2n(CC(C)C)c1=O	976 s
Cc1cccc(NC(=O)Nc2ccc3c(c2)CCN3S(=O)(=O)c2ccccc2)c1C	984 s
COc1cccc(CNC(=O)N2CCC3(C2)C(=O)N(C)c2ccc(OC)cc23)c1 (centres undefined)	704 s
Cc1ccsc1-c1nc(-c2ccc3ncn(C)c3c2)no1	732 s
COc1ccc(OC)c(CNC(=O)c2ccc3c(c2)N(C)C(=O)c2ccccc2O3)c1	852 s
CSc1ccc(-c2noc(Cn3nc(-c4ccccc4)ccc3=O)n2)cc1	1040 s
CC1CN(C(=O)c2ccc(C#N)cc2)c2ccccc2O1 (centres undefined)	914 s
Cc1ccn2c(NC(=O)c3ccc([N+](=O)[O-])cc3)c(-c3ccccc3)nc2c1	667 s
CC(C)c1ccccc1NC(=O)C1CCN(S(C)(=O)=O)c2ccccc2O1 (centres undefined)	945 s
CC(C)(C)NC(=O)Cn1ccn2nc(-c3ccc(F)cc3)c(CO)c2c1=O	738 s
Cc1ccc(NS(=O)(=O)c2ccc3c(c2)C(=O)N(C)c2ncccc2O3)c(C)c1	986 s
CC(C)Oc1ccc(-c2noc(CN3N=NC4C(=O)N(c5ccc(C(C)C)cc5)C(=O)C43)n2)cc1 (centres undefined)	1180 s
COc1cccc(C(=O)NCCOc2cccc(C(F)(F)F)c2)c1OC	972 s
Cc1nc(N)n(CC(=O)NCc2ccc(F)cc2)c(=O)c1C	842 s
Cc1ccc(-n2c(=O)c3c(cc(C)n3C)n(CC(=O)Nc3ccccc3Cl)c2=O)cc1	900 s
COc1ccc(-c2noc(Cc3nnc(-c4cccc(Cl)c4)o3)n2)cc1F	1060 s
CCc1ccc(-c2ccc(=O)n(CCc3nc(-c4ccc(C)cc4)no3)n2)cc1	1180 s
Cc1csc(-c2cc(S(=O)(=O)Nc3ccc(S(N)(=O)=O)cc3)c(C)s2)n1	797 s

Continued, values first:

RP-LC retention time	Structure (SMILES)
1130 s	O=C(CCC(=O)OCc1ccc(Br)cc1)Nc1nc(-c2ccccc2)cs1
992 s	Cc1ccc(S(=O)(=O)N2C[C@@H]3C[C@H](NC(=O)c4cccs4)[C@H]2C3)cc1Cl
587 s	Cc1cc2n(n1)CCCN2Cc1ccc(C(=O)NCCCN2CCCC2=O)cc1
810 s	CCOC(=O)Cc1csc(NC(=O)C2CCCN(c3ncnc4c3nc3n4CCCCC3)C2)n1 (centres undefined)
1040 s	CCOc1ccccc1NC(=O)N1CCC(c2cnn(-c3ccccc3)c2)CC1
1060 s	CCOc1ccccc1NC(=O)C(=O)Nc1ccc([N+](=O)[O-])cc1
994 s	CCCn1c(=O)sc2cc(S(=O)(=O)N3CCC(C(=O)N4CCC(C)CC4)CC3)ccc21
574 s	CCn1cc(S(=O)(=O)N2CC(Cn3c(C)cnc3-c3ccncc3)C2)cn1
668 s	Cn1nc(C2CCN(C(=O)NCc3ccccc3)CC2)c2c1CCOC2
1350 s	Cc1cc(C)c(S(=O)(=O)N2CCC(c3noc(-c4ccccc4)n3)CC2)c(C)c1
759 s	COc1cc(OC)cc(C(=O)N(C)CCc2noc(-c3ccc(C(=O)N4CCCC4)cc3)n2)c1
651 s	COc1ccc(CNC(=O)C2CCN(c3cncnc3N3CCOCC3)CC2)cc1
1140 s	O=C(NCc1ccc(C(F)(F)F)cc1)C1CCCN(c2nccnc2Sc2ccccc2)C1 (centres undefined)
976 s	Cc1ccc(N(C)C(=O)CN2C(=O)CCCc3cc(S(=O)(=O)N4CCCCC4)ccc32)cc1
671 s	COc1ccc(CNC(=O)N2CCC(c3nc(C(=O)N4CCOCC4)c(C)o3)CC2)cc1
587 s	CCN1CCN(C(=O)c2ccc(-c3nnc4ccc(NC(=O)C5CC5)cn34)cc2)CC1
895 s	Cc1ccc(Cn2nc3ccc(S(=O)(=O)N4CCCC4)cn3c2=O)cc1
794 s	COc1cc(OC)cc(C(=O)N2CCN(c3cc(-c4cccs4)[nH]n3)CC2)c1

RP-LC retention time	Structure (SMILES)
816 s	O=C(Cn1nc(N2CCOCC2)c2ccccc2c1=O)Nc1ccc(F)cc1Cl
709 s	O=C(NC1CCCCCC1)c1nc(-c2ccnc(N3CCCC3)c2)no1
772 s	Cc1ccc(C)c(NC(=O)Cn2c(N3CCC(C)CC3)nc(C)cc2=O)c1
792 s	O=C(NCC1CCCO1)N1CCCn2nc(-c3cccc(Cl)c3)cc2C1 (centres undefined)
656 s	COc1ccc(CCC(=O)NC(C)C(=O)Nc2nc3ccccc3[nH]2)cc1 (centres undefined)
1000 s	O=C(O)Cn1nnc(-c2cc(N3CCC(Oc4cc(F)ccc4Br)CC3)no2)n1
1280 s	Cc1ccc(NC(=O)C2CCCN(c3nc4c(s3)c(C)nn4-c3cccc(F)c3)C2)c(C)c1 (centres undefined)
670 s	O=C(NCc1ccccc1C(F)(F)F)C1CCN(c2cc(N3CCOCC3)ncn2)CC1
920 s	COC(=O)c1ccc2c(=O)n(-c3cc(OC)cc(OC)c3)c(N3CCCC3)nc2c1
592 s	COc1cn2c(cc1=O)C(=O)N(CCNC(=O)C1c3ccccc3Oc3ccccc31)CC2
581 s	O=C(NCc1ccc2c(c1)OCO2)c1cn2c(n1)CCCC2
1090 s	O=C(Nc1ccccc1C(=O)NCCC1=CCCCC1)C1=CSCCO1
648 s	COc1cccc(S(=O)(=O)N2CCN(C3=CC4=NC(C)CN4C=N3)CC2)c1 (centres undefined)
960 s	Cc1ccc(CNC(=O)C2CCN(c3ncccc3S(=O)(=O)N3CCCCC3)CC2)cc1
1130 s	Clc1ccc(Nc2nc3ccccc3c3nc(C4CCCCC4)[nH]c23)cc1Cl
656 s	COc1ccc(-c2noc3ncnc(N4CCC(C(=O)N5CCC(C(N)=O)CC5)CC4)c23)cc1
615 s	Cc1nn(C(C)C(=O)NCCCN2CCOCC2)c(=O)c2nn(-c3ccccc3)c(C)c12 (centres undefined)

From the METLIN SMRT retention time set (Domingo-Almenara et al. 2019)
